Measurements from patent US10054581B1, “Inhibitors of notch signaling pathway and use thereof in treatment of cancers” (Ecole Polytechnique Federale de Lausanne (EPFL), priority 2011, dated 2018).
Entries after “also recorded” stand apart in the source; their conditions may differ.

Tests used:
[1] = system: Notch signalling via DL4:N1 ligand-receptor pair (Notch1); assay: DL4:N1 coculture assay, Notch driven luciferase reporter; assay type: cell-based, mouse; conditions: for DL4:N1 (Notch1) driven pathway activation: 10 μM, 24 hours
Description: Mouse DL4-IRES dsRED cDNA was cloned into a pENTR1 vector (Invitrogen®) and finally shuttled into a destination lentivirus vector using Gateway cloning strategy (Invitrogen). A Phosphoglycerate kinase (PGK) promoter drove the expression of DL4 protein. DL4-lentiviral particles were produced in 293T cells by cotransfection of DL4-lentivirus vector, Gag/pol expression plasmid and plasmid encoding for viral envelope proteins. To overexpress Notch1 protein, mouse full length Notch1 cDNA was a cloned in a pCDNA3.1-IRES-puromycin vector. Notch1 cDNA was cloned upstream of IRES-puromycin between HindIII and XbaI restriction sites. A CMV promoter controlled the expression of Notch1 protein.
To measure the Notch signalling activation, CSL/RBP-jk consensus DNA binding sequences were cloned in a head to tail conformation in the pGL4 luciferase vector (Promega), thus named 12×CSL/RBP-jjk luciferase vector. In order to determine the Notch pathway activation in chemical compound screening assay, 12×CSL/RBP-jk consensus DNA binding sequences were cloned into pGL4.26.luciferase vector (Promega). As an internal control for transfection efficiency, SV40 Renilla vector was used (Promega).
In order to generate DL4 and N1 stable cell lines, HeLa cell were bought from ATCC (catalog # CCL-2). To generate DL4 stable lines, cells were transduced with DL4-lentiviral particles. DL4 stable clones were selected using puromycin. High DL4 expressing clones were sorted using antibodies against DL4 with Fluorescence activated cell sorting (FACS). To generate N1 stable line, cell were transfected with a pCDNA3.1+(Invitrogen) plasmid containing mouse full length Notch1 under the control of CMV promoter. To select for Notch1 expressing clones, an IRES puromycin cassette was cloned downstream of Notch1 cDNA. HeLa cells expressing high levels of Notch1 were enriched by FACS using anti-Notch1 antibodies. DL4- and N1-HeLa cells were cultured in DMEM (GIBCO, Invitrogen), 10% FCS and 10 ug/ml of puromycin (Sigma).
For chemical library screen, the coculture assay was performed as follows. N1-HeLa cells were cotransfected in 10 cm tissue culture dishes with 16 μg of pGL4.26. 12×CSL.luciferase vector/plate, 4 μg of Notch1 expression plasmid/plate, and 200 ng of SV40 Renilla vector/plate. DL4- and N1-HeLa cells were detached from the plate by using 0.5 mM EDTA (1×PBS). The both cell populations were counted and mixed in 1:1 ratio (5,000:5,000 cells/well in a 384 well plate) and dispensed into 384 well plates (white, clear bottom, Corning) using multidrop Combi plate dispenser. The assay plates were pre-dispensed (using automated Biomek 3000 liquid handler) with chemical compound libraries (Microsource NIMDS, Maybridge Hitfinder and Prestwick) to give a final concentration of 10 μM. The final assay volume was 22 μls. Twenty-four hours later, growth media was aspirated and cells were lysed with 1× Passive lysis buffer for 10 minutes at room temperature. Luciferase activity was measured using Luciferase Assay Reagent II and Renilla values were determined by using Stop and Glow reagent (Dual luciferase assay system, Cat #E1980, Promega). Luciferase and renilla readouts were taken using Tecan® F500 (Tecan) multiplate reader. All the liquid handling steps (aspiration of the medium, dispensing of Passive lysis buffer, Luciferase Assay Reagent II and Stop and Glow reagents) were performed using ELF406 liquid handler.
In order to identify novel modulators of the Notch pathway, Applicants have established a coculture assay in which DL4 ligand expressing HeLa cells were cultured with N1 HeLa cells, thereby activating the Notch pathway. The use of a DL4 and N1 HeLa cell coculture system mimics physiological conditions of cell-cell communication between ligand and receptor expressing cells. The in vitro generation of a controlled receptor-ligand assay system allowed Applicants to modify and monitor the Notch signal intensity by γ-secretase inhibitors. […]

[2] = system: Notch-independent RAJI cells; assay: Alamar blue proliferation assay, RAJI; assay type: cell-based; conditions: control line with no known Notch mutations
Description: Alamarblue® proliferation assays were performed to determine the growth kinetics of Notch inhibitor treated cells. Alamar Blue® consists of a cell permeable substrate resazurin. In metabolically active and proliferating cells, resazurin is converted to resorufin due to an intrinsic reducing power of live cells and produces a red fluorescence. Therefore production of resorufin serves as an indicator of the viability of the cell population.
Proliferation assays were performed by seeding 5000 cells/well in a 96 well plate. Cells were treated with DMSO or Notch inhibitors for different time intervals. Each treatment for every time interval was carried out in 8 replicates. To determine the growth kinetics, 10 μl of Alamar Blue® (Invitrogen) was added to each well and incubated for 4 hours. Alamarblue readout was taken using Tecan F500 (Tecan) multiplate reader.
As treatment of the human T-ALL cell lines and PANC1 pancreatic cancer cell line with 6-(4-Tert-Butylphenoxy)Pyridin-3-Amine (I3) induced a downregulation of Notch signalling, Applicants questioned whether this inhibition of the pathway translates into growth arrest in cancer cells. To this end, RPMI 8402, KOPTK1, PANC1 and nRas driven melanoma cell lines were grown in the presence or absence of 6-(4-Tert-Butylphenoxy)Pyridin-3-Amine (I3) for several days and their proliferative index was measured using the Alamar blue assay. […]

DND41-NICD cells = assay: Alamar blue proliferation assay, DND41-NICD; assay type: cell-based, human; conditions: over 5 days
Description: FIGS. 5A-5E show 6-(4-Tert-Butylphenoxy)Pyridin-3-Amine (I3) blocks NICD dependent growth of human cancer cells. […] Western blot analyses were carried out for Hes1 protein using Hes1 specific antibodies. […] Growth kinetics of the parental cell line was followed over 5 days using Alamar blue readout. […] This mutation renders this cell line insensitive to γ-secretase inhibitor treatment. […] The cells were treated with DMSO, γ-secretase inhibitor DAPT and I3 for 6 days. Alamar blue readout was taken at day 0, day 2, day 4 and day 6. Eight replicates were used for each treatment and time point. […] P values were calculated using Student's t.test. *=p value<0.05. ns=not significant.
Alamarblue® proliferation assays were performed to determine the growth kinetics of Notch inhibitor treated cells. […] In metabolically active and proliferating cells, resazurin is converted to resorufin due to an intrinsic reducing power of live cells and produces a red fluorescence. […]
Proliferation assays were performed by seeding 5000 cells/well in a 96 well plate. […] Alamarblue readout was taken using Tecan F500 (Tecan) multiplate reader.
6-(4-Tert-Butylphenoxy)Pyridin-3-Amine (I3) can block NICD mediated activation of the Notch pathway (FIGS. 1A-D). […] In addition, these two cell lines were also monitored over several days for anti-proliferative effects of 6-(4-Tert-Butylphenoxy)Pyridin-3-Amine (I3) and DAPT.

[3] = system: Notch signalling via DL4:N2 ligand-receptor pair (Notch2); assay: DL4:N2 coculture assay, Notch driven luciferase reporter; assay type: cell-based; conditions: 10 μM, 24 hours
Description: Next Applicants investigated whether I3 could block pathway activation via other Notch receptors or is it specific to Notch1 signalling. To address this, a coculture assay was used where Notch signalling was activated via DL4:N1 or DL4:N2 ligand receptor pairs.

| SMILES | downregulation of Notch signalling activation ([1]; 10 μM DAPT vs DMSO, 384 well plate) [fold] | DL4:N1 (Notch1) driven pathway activation [1] | proliferation [2] | proliferation (Alamar blue) (DND41-NICD cells) | DL4:N2 (Notch2) driven pathway activation [3] |
| --- | --- | --- | --- | --- | --- |
| C[C@H](NC(=O)Cc1cc(F)cc(F)c1)C(=O)N[C@H](C(=O)OC(C)(C)C)c1ccccc1 [DAPT, N—[N-(3,5-difluorophenacetyl-Lalanyl)]-(S)-phenylglycine t-butyl ester, reference compound] | 10 | block Notch1 and Notch2 induced pathway activation | neither DAPT nor 6-(4-Tert-Butylphenoxy)Pyridin-3-Amine (I3) had any effect on the proliferation | did not have a significant impact on their proliferation | block Notch1 and Notch2 induced pathway activation |
| CC(C)(C)c1ccc(Oc2ccc(N)cn2)cc1 [I3, 6-(4-Tert-Butylphenoxy)Pyridin-3-Amine] |  | caused an inhibition of Notch signalling via both DL4:N1 and DL4:N2 ligand-receptor pairs; also recorded: block Notch1 and Notch2 induced pathway activation | neither DAPT nor 6-(4-Tert-Butylphenoxy)Pyridin-3-Amine (I3) had any effect on the proliferation | induced a proliferation arrest; also recorded: able to block proliferation of NICD overexpressing leukemic cell lines which are resistant to DAPT | caused an inhibition of Notch signalling via both DL4:N1 and DL4:N2 ligand-receptor pairs; also recorded: block Notch1 and Notch2 induced pathway activation |
